# Laboratory results from BindingDB's records for doi:10.1021/acsmedchemlett.6b00145 (Amgen, 2016).
# Experiments:
# [1] = target: T1, Hexokinase-4 (Homo sapiens, UniProt P35557); assay: Activation of human recombinant glucokinase using 5 mM glucose as substrate in presence of NAD+ by glucose 6-phosphate dehydrogenase coupled assay
# T1 sequence (P35557 whole entry): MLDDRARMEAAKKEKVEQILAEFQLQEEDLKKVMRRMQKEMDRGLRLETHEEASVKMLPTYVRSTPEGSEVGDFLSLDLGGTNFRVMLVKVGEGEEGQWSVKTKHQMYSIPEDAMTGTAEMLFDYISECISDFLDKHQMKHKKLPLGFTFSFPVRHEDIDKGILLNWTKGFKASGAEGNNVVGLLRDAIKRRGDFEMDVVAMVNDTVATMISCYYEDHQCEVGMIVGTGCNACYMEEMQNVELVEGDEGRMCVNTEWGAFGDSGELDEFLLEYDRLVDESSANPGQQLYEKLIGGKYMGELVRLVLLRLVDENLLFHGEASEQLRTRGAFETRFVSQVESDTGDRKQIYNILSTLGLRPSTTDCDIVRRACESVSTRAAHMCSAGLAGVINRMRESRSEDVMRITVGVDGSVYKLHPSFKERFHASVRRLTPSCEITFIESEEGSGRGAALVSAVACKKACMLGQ
# [2] = target: T1, Hexokinase-4; assay: Activation of human recombinant glucokinase using 5 mM glucose as substrate in presence of NAD+ and 4% HSA by glucose 6-phosphate dehydrogenase coupled assay
EC50 [1] [nM],EC50 [2] [nM],Structure (SMILES)
97,190,CNC(=O)Nc1cc(Oc2cncc(C)c2)c([C@@H]2CC[C@@H](O)C2)cn1
130,170,CNC(=O)Nc1cc(Oc2cncc(C)c2)c([C@H]2C[C@@H]2CO)cn1
940,920,CNC(=O)Nc1cc(Oc2cncc(OC)c2)c([C@@H]2COCC[C@@H]2O)cn1
83,130,CNC(=O)Nc1cc(Oc2cncc(C)c2)c([C@H]2C[C@@H]2C(C)(C)O)cn1
